Data set [1] has as its target Cathepsin B (Homo sapiens) (UniProt P07858). Put plainly: Inhibition of human cathepsin B using Suc-LLVY-AMC as substrate assessed as remaining enzyme activity at 20 uM incubated for 15 mins prior to substrate addition measured for 30 mins by fluorescence assay.
Data set [2] has as its target T1, Calpain-1 catalytic subunit (Homo sapiens) (UniProt P07384).
T1 sequence (whole entry): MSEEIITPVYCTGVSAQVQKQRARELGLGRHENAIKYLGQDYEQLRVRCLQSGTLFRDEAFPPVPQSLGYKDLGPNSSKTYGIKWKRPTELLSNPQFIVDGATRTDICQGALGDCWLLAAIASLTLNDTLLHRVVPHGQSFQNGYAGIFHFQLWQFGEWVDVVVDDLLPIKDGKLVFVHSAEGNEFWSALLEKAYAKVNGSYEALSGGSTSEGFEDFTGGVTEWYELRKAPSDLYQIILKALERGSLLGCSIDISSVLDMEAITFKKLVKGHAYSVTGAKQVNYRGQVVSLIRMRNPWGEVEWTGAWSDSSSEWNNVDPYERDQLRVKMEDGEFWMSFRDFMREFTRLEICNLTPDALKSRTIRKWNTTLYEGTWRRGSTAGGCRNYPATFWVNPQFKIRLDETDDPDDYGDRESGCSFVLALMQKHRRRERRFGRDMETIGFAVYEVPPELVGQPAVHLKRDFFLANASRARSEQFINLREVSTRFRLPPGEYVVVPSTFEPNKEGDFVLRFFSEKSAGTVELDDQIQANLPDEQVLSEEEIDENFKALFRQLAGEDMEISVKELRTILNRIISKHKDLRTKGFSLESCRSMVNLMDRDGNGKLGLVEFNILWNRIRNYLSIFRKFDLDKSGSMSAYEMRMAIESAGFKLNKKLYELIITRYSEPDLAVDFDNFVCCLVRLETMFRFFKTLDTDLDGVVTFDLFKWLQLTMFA
Put plainly: Inhibition of human calpain 1 using Suc-LLVY-AMC as substrate assessed as remaining enzyme activity at 20 uM incubated for 5 mins prior to substrate addition measured for 30 mins by fluorescence assay.

In data set [3] the target is T2, Proteasome Macropain subunit MB1 (Homo sapiens, UniProt P28074).
T2 sequence (P28074 whole entry): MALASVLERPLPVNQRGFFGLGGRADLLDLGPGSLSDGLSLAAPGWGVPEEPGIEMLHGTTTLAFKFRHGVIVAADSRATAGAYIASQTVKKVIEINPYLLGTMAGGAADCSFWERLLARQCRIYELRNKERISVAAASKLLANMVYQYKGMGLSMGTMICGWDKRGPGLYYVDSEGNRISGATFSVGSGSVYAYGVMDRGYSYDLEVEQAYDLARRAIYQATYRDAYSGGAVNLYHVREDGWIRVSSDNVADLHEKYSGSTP
Description: (§1) Inhibition of chymotrypsin-like activity of human constitutive 20s proteasome beta-5 subunit using Suc-LLVY-AMC as substrate assessed as remaining activity incubated for 15 mins prior to substrate addition measured after 45 mins by fluorescence assay

Data set [4] concerns the target T2, Proteasome Macropain subunit MB1. This is another data set of the same source.
Description: Competitive inhibition of chymotrypsin-like activity of human constitutive 20s proteasome beta-5 subunit using Suc-LLVY-AMC as substrate assessed as inhibition constant for dissociation of enzyme-inhibitor complex incubated for 15 mins prior to substrate addition measured after 45 mins by fluorescence assay
Data set [5] has as its target T3, Proteasome component C5 (Homo sapiens) (UniProt P20618).
T3 sequence (whole entry): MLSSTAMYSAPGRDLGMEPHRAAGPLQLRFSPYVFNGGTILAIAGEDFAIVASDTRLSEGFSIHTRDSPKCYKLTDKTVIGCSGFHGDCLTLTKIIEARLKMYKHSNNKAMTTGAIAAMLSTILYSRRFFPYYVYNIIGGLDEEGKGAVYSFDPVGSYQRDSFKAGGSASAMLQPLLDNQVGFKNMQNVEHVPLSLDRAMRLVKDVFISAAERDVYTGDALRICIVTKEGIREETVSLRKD
Put plainly: Inhibition of postacid activity of 20s proteasome beta-1 subunit in HEK293 cells using Z-nLPnLD-Glo as substrate at 10 uM incubated for 2 hrs prior to substrate addition measured after 10 mins by cell-based proteasome-Glo beta1 assay.

The target of data set [6] is T2, Proteasome Macropain subunit MB1. This is another data set of the same source.
Description: Inhibition of chymotrypsin-like activity of proteasome beta-5 subunit in HEK293 cells using Suc-LLVY-Glo as substrate incubated for 2 hrs prior to substrate addition measured after 10 mins by cell-based proteasome-Glo beta5 assay
Data set [7] in a line: Half life of the compound in RPMI culture medium in presence of 20% fetal calf serum at 37 degC by HPLC analysis. Particulars: cattle, RPMI culture medium with 20% fetal calf serum. In kind it is physicochemical.
Data set [8] has as its target T3, Proteasome component C5 (Homo sapiens). Put plainly: Inhibition of postacid activity of 20s proteasome beta-1 subunit in HEK293 cells using Z-nLPnLD-Glo as substrate at 20 uM incubated for 2 hrs prior to substrate addition measured after 10 mins by cell-based proteasome-Glo beta1 assay.
The target in data set [9] is T2, Proteasome Macropain subunit MB1. Put plainly: Mixed type inhibition of chymotrypsin-like activity of human constitutive 20s proteasome beta-5 subunit using Suc-LLVY-AMC as substrate assessed as inhibition constant for dissociation of enzyme-substrate-inhibitor complex incubated for 15 mins prior to substrate addition measured after 45 mins by fluorescence assay.

Data set [10] has the same target. Put plainly: Mixed type inhibition of chymotrypsin-like activity of human constitutive 20s proteasome beta-5 subunit using Suc-LLVY-AMC as substrate assessed as inhibition constant for dissociation of enzyme-inhibitor complex incubated for 15 mins prior to substrate addition measured after 45 mins by fluorescence assay.
Data set [11] deals with T4, Proteasome Macropain subunit PRE2 (Saccharomyces cerevisiae S288c, UniProt P30656).
T4 sequence (P30656 whole entry): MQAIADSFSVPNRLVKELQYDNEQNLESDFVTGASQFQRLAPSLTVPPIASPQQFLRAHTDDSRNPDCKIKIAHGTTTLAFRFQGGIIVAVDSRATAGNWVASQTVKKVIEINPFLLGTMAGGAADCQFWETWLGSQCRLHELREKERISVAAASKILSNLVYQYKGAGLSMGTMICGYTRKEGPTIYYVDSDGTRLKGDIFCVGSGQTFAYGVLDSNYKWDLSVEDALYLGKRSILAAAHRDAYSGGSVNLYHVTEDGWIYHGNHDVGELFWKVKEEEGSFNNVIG
Description: Inhibition of chymotrypsin-like activity of yeast 20S proteasome beta-5 subunit using Suc-LLVY-AMC as substrate measured up to 45 mins by fluorescence assay

Data set [12] concerns the target Proteasome Macropain subunit (Homo sapiens, UniProt P49721). Put plainly: Inhibition of trypsin-like activity of human constitutive 20s proteasome beta-2 subunit using Boc-LRR-AMC as substrate assessed as remaining activity incubated for 15 mins prior to substrate addition measured after 45 mins by fluorescence assay.
Data set [13] addresses T2, Proteasome Macropain subunit MB1. This is another data set of the same source.
Description: as §1
Data set [14] addresses T5, Proteasome component C5 (Homo sapiens, UniProt P20618).
T5 sequence (P20618 whole entry): T3 sequence (whole entry)
Description: Inhibition of postacid activity of human constitutive 20s proteasome beta-1 subunit using Z-LLE-betaNA as substrate assessed as remaining activity incubated for 15 mins prior to substrate addition measured after 45 mins by fluorescence assay

Calls of active or inactive are those of the source. The calls are words filed in the database; no cut-off is given here.

Sequence of Proteasome Macropain subunit (P49721 whole entry): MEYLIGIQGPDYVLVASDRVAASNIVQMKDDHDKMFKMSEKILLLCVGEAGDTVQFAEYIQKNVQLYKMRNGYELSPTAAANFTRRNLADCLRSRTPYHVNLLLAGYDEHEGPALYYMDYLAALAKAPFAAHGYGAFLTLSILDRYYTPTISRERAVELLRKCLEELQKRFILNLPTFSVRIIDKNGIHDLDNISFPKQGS

For `C[C@H](NC(=O)[C@H](Cc1ccc(OCc2ccccc2)cc1)NC(=O)CCCCCNC(=O)CCCCCNC(=O)CCCCCNC(=O)CCCCCNC(=O)CCCCC(=O)NCCCCCC(=O)NCCCCCC(=O)NCCCCCC(=O)NCCCCCC(=O)N[C@@H](Cc1ccc(OCc2ccccc2)cc1)C(=O)N[C@@H](C)C(=O)N[C@@H](C[C@]1(O)C(=O)Nc2ccccc21)C(=O)NCc1ccccc1)C(=O)N[C@@H](C[C@]1(O)C(=O)Nc2ccccc21)C(=O)NCc1ccccc1`, the inhibition result in data set [1] and in data set [2] was “inactive” in each case. Besides, the IC50 – broadly, the concentration that inhibits the measured activity by half – in [3] came to 20 nM. Further, in data set [4], the affinity, expressed as Ki, was 6 nM.

On to `C[C@H](NC(=O)[C@H](Cc1ccc(OCc2ccccc2)cc1)NC(=O)CCCCCNC(=O)CCCCCNC(=O)CCCCCNC(=O)CCCCC(=O)NCCCCCC(=O)NCCCCCC(=O)NCCCCCC(=O)N[C@@H](Cc1ccc(OCc2ccccc2)cc1)C(=O)N[C@@H](C)C(=O)N[C@@H](C[C@]1(O)C(=O)Nc2ccccc21)C(=O)NCc1ccccc1)C(=O)N[C@@H](C[C@]1(O)C(=O)Nc2ccccc21)C(=O)NCc1ccccc1`, for which the inhibition result in [1] and in [2] was “inactive” each time. Moreover, the inhibition (in general, the share of the control response that was lost under treatment) in data set [5] amounted to 30%. Moreover, the IC50 in data set [3] was found to be 19.1 nM; in [6] it was 476 nM. In data set [4], the Ki (commonly the equilibrium dissociation constant of an inhibitor or competing ligand from its target) worked out at 10.6 nM.

Take `C[C@H](NC(=O)[C@H](Cc1ccc(OCc2ccccc2)cc1)NC(=O)CCCCCNC(=O)CCCCCNC(=O)CCCCCNC(=O)CCCCC(=O)N[C@@H](Cc1ccc(OCc2ccccc2)cc1)C(=O)N[C@@H](C)C(=O)N[C@@H](C[C@]1(O)C(=O)Nc2ccccc21)C(=O)NCc1ccccc1)C(=O)N[C@@H](C[C@]1(O)C(=O)Nc2ccccc21)C(=O)NCc1ccccc1`: the half-life (in general, how long it takes for the measured level to halve) in [7] was 50 h. Besides, the inhibition entry in data set [1] and in data set [2] was “inactive” throughout. Besides, in data set [8], the inhibition is 40%. The IC50 in data set [3] was 25.8 nM; in data set [6], 541 nM. The same compound registered a Ki in data set [4] of 10.3 nM.

Consider `C[C@H](NC(=O)[C@H](Cc1ccc(OCc2ccccc2)cc1)NC(=O)OC(C)(C)C)C(=O)N[C@@H](C[C@]1(O)C(=O)Nc2ccccc21)C(=O)NCc1ccccc1`, for which the half-life in data set [7] is 50 h. The inhibition result in data set [1] and in [2] was “inactive” in each case. Besides, the Ki amounted to 5030 nM in [9] and 2430 nM in data set [10]. Besides, the half-maximal inhibitory concentration (IC50) in data set [3] is 3190 nM; in [11] it was 1500 nM; in data set [6], 7970 nM.

For `C[C@H](NC(=O)[C@H](Cc1ccc(OCc2ccccc2)cc1)NC(=O)CCCCCNC(=O)CCCCCNC(=O)CCCCCNC(=O)OC(C)(C)C)C(=O)N[C@@H](C[C@]1(O)C(=O)Nc2ccccc21)C(=O)NCc1ccccc1`, in data set [7], the half-life is 19 h. Besides, the inhibition result in data set [1] and in data set [2] was “inactive” throughout. The values for the Ki in [9] and in data set [10] were 316 nM and 101 nM, respectively. The IC50 in data set [3] is 460 nM; in data set [6], 252 nM.

Regarding `C[C@H](NC(=O)[C@H](Cc1ccc(OCc2ccccc2)cc1)NC(=O)CCCCCNC(=O)CCCCCNC(=O)CCCCCNC(=O)CCCCCNC(=O)CCCCCNC(=O)CCCCC(=O)N[C@@H](Cc1ccc(OCc2ccccc2)cc1)C(=O)N[C@@H](C)C(=O)N[C@@H](C[C@]1(O)C(=O)Nc2ccccc21)C(=O)NCc1ccccc1)C(=O)N[C@@H](C[C@]1(O)C(=O)Nc2ccccc21)C(=O)NCc1ccccc1`, the inhibition result in data set [1] and in data set [2] was “inactive” throughout. The inhibition in [5] came to 25%. Besides, the IC50 is 22.7 nM in data set [3] and 472 nM in [6]. The same compound showed a Ki in data set [4] of 11.4 nM.

Regarding `COC(=O)CCCCCNC(=O)CCCCCNC(=O)CCCCCNC(=O)CCCCC(=O)OC`, the inhibition result in data set [1] and in [2] was “inactive” throughout. Further, the IC50 result in [12], in [13] and in data set [14] was “Not Active” in each case.

Take `COC(=O)CCCCCNC(=O)CCCCCNC(=O)CCCCCNC(=O)CCCCCNC(=O)CCCCCNC(=O)CCCCCNC(=O)OC(C)(C)C`: the inhibition entry in [1] and in [2] was “inactive” throughout. Also, the IC50 result in data set [12], in data set [13] and in [14] was “Not Active” throughout.

As for `C/C=C\NC(=O)[C@H]1NC(=O)[C@H](CC(N)=O)CC(=O)[C@@H](NC(=O)C(=O)[C@@H](C)CC)Cc2ccc(O)c(c2)-c2cccc3c2NC(=O)[C@@]3(O)[C@@H]1O`, in data set [3], half-maximal inhibition (IC50) required 5.4 nM. This compound displayed a Ki in data set [4] of 2.3 nM.

On to `C[C@H](NC(=O)[C@H](Cc1ccc(OCc2ccccc2)cc1)NC(=O)CCCCCNC(=O)CCCCCNC(=O)CCCCCNC(=O)CCCCCNC(=O)OC(C)(C)C)C(=O)N[C@@H](C[C@]1(O)C(=O)Nc2ccccc21)C(=O)NCc1ccccc1`, for which the inhibition result in data set [1] and in data set [2] was “inactive” each time. Besides, the Ki in [9] is 200 nM; in data set [10], 67 nM. In data set [3], this compound had an IC50 of 707 nM.

Consider `C[C@H](NC(=O)[C@H](Cc1ccc(OCc2ccccc2)cc1)NC(=O)CCCCCNC(=O)CCCCCNC(=O)CCCCCNC(=O)CCCCCNC(=O)CCCCC(=O)N[C@@H](Cc1ccc(OCc2ccccc2)cc1)C(=O)N[C@@H](C)C(=O)N[C@@H](C[C@]1(O)C(=O)Nc2ccccc21)C(=O)NCc1ccccc1)C(=O)N[C@@H](C[C@]1(O)C(=O)Nc2ccccc21)C(=O)NCc1ccccc1`, for which the inhibition entry in [1] and in data set [2] was “inactive” throughout. For the same compound, the inhibition in data set [5] came out at 37%. Moreover, the IC50 in [3] was 25.9 nM; in data set [6] it was 756 nM. Further, the inhibitory constant (Ki) in [4] was 10.8 nM.

Source of the values: ChEMBL document CHEMBL2331312, “Dimerized linear mimics of a natural cyclopeptide (TMC-95A) are potent noncovalent inhibitors of the eukaryotic 20S proteasome” (J Med Chem, 2013).
